Compound in one test: NC(=O)CCCCC1CCSS1 [lipoamide]
The experiment in a line: thermal stability z-score vs DMSO; higher = more thermally stabilized by treatment. As to conditions: HeLa, lipoamide concentration 100 µM. As for the experimental part:
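Cellular thermal proteome profiling in HeLa cells. Cells were treated with 100 µM lipoamide for 1 h, with or without 1 mM arsenate for a further 1 h, then heated to ten temperatures (37-66.3 °C), and soluble protein was quantified by TMT mass spectrometry relative to 0.1% DMSO controls. The thermal stability score (sum of log2 fold changes minus the abundance score) was transformed to a z-score; mean of n = 3 experiments.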

Compound in another test: O=[As]([O-])(O)O.[K+] [potassium arsenate]
The description is as above. The following applies: HeLa; arsenate concentration 1 mM. As for the experimental part: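 Cellular thermal proteome profiling in HeLa cells treated with 1 mM arsenate for 1 h (DMSO pretreatment), heated to ten temperatures (37-66.3 °C). Soluble protein was quantified by TMT mass spectrometry relative to DMSO controls; the thermal stability score was transformed to a z-score; mean of n = 3 experiments.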

The mark [1] stands for this setting: arsenate co-treatment: 1 mM arsenate 1 h.
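Also: each temperature applied for 3 min, abundance score taken as mean log2 fold change at the two lowest temperatures, z-score obtained by mean subtraction and division by SD.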

UniProt P30047, sequence (P30047 whole entry): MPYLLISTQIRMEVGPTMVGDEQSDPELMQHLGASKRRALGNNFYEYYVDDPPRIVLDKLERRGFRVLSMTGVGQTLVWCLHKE
UniProt Q99595, sequence (Q99595 whole entry): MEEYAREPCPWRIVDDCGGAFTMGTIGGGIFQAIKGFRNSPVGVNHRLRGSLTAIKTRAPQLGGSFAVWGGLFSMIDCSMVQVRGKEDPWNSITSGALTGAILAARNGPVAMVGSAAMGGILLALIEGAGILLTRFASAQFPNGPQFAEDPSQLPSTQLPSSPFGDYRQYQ
UniProt Q9P215, sequence (Q9P215 whole entry): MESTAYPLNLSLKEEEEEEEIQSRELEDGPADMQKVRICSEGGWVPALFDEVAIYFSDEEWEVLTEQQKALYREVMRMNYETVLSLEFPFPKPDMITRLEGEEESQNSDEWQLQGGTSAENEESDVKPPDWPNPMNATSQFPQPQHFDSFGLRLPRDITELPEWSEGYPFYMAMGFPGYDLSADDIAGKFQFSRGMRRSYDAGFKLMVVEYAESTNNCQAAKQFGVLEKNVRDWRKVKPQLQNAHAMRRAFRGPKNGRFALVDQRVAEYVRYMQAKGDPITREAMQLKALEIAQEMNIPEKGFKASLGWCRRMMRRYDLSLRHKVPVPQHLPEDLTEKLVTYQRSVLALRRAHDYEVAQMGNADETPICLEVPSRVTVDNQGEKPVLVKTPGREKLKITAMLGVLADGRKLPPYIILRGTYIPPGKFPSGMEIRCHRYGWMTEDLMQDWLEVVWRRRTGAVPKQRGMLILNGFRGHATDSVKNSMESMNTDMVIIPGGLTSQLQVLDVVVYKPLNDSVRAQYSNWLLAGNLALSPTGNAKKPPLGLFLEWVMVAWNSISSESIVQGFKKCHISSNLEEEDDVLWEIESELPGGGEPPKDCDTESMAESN
UniProt Q9Y2R0, sequence (Q9Y2R0 whole entry): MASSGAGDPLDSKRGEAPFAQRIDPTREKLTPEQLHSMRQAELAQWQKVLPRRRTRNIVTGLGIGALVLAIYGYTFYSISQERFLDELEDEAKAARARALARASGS
UniProt O14544, sequence (O14544 whole entry): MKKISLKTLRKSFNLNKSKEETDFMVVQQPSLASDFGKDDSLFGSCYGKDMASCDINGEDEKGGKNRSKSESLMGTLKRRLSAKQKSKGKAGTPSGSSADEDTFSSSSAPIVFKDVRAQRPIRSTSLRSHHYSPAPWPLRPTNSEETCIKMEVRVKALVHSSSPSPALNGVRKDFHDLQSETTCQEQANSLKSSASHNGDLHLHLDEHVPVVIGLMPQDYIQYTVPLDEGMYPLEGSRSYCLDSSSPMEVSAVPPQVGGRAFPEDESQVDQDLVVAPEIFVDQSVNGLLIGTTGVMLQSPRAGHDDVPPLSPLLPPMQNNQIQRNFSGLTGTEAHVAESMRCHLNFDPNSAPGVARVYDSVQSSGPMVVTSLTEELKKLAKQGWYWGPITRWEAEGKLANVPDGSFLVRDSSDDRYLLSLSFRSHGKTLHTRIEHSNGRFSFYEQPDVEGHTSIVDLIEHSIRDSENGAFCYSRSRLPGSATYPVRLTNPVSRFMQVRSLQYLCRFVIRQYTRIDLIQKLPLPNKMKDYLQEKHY
UniProt O43719, sequence (O43719 whole entry): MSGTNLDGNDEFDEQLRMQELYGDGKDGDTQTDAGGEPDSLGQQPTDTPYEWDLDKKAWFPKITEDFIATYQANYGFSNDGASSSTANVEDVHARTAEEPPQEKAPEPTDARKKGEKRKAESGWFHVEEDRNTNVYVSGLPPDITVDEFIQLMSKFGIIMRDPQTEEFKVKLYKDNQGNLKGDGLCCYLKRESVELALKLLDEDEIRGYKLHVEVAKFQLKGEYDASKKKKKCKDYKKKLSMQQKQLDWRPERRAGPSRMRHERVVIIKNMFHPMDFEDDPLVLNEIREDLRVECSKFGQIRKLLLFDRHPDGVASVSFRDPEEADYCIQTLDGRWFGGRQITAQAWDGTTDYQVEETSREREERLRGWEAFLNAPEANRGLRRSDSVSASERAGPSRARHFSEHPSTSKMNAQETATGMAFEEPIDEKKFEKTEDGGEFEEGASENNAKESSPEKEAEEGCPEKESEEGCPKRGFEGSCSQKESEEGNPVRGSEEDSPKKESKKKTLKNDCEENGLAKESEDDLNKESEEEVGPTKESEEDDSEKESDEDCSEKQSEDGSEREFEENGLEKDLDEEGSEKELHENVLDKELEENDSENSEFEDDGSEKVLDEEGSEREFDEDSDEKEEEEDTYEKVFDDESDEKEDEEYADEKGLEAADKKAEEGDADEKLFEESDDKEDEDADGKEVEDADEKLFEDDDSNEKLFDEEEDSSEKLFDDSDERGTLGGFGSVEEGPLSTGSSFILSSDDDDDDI
UniProt Q96NB3, sequence (Q96NB3 whole entry): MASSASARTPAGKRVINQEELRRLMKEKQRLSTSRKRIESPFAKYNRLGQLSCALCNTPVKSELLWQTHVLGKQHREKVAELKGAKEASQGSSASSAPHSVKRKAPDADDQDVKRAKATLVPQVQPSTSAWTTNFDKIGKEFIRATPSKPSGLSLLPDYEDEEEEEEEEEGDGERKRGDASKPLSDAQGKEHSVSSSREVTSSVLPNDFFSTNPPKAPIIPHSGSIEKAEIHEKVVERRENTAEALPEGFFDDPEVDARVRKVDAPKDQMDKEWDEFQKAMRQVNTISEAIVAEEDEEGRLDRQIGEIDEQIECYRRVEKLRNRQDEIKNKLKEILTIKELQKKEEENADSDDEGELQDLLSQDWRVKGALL
UniProt Q53GA4, sequence (Q53GA4 whole entry): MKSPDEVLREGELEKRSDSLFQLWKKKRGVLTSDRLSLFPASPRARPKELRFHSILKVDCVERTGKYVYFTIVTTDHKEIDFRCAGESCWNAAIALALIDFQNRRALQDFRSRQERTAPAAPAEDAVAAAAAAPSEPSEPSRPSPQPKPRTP
UniProt P15289, sequence (P15289 whole entry): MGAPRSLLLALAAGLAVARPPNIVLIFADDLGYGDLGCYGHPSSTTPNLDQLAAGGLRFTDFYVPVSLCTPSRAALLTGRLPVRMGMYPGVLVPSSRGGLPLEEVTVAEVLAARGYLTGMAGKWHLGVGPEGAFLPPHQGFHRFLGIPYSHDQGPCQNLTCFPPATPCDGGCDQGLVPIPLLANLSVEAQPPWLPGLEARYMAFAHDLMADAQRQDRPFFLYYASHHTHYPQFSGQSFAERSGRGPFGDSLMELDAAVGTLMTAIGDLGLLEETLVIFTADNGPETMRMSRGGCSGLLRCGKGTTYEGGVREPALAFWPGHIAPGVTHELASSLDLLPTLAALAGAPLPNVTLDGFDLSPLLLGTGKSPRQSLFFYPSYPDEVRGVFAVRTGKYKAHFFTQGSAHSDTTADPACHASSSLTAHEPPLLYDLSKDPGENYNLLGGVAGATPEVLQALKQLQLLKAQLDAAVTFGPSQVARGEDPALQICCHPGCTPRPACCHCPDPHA
UniProt Q12769, sequence (Q12769 whole entry): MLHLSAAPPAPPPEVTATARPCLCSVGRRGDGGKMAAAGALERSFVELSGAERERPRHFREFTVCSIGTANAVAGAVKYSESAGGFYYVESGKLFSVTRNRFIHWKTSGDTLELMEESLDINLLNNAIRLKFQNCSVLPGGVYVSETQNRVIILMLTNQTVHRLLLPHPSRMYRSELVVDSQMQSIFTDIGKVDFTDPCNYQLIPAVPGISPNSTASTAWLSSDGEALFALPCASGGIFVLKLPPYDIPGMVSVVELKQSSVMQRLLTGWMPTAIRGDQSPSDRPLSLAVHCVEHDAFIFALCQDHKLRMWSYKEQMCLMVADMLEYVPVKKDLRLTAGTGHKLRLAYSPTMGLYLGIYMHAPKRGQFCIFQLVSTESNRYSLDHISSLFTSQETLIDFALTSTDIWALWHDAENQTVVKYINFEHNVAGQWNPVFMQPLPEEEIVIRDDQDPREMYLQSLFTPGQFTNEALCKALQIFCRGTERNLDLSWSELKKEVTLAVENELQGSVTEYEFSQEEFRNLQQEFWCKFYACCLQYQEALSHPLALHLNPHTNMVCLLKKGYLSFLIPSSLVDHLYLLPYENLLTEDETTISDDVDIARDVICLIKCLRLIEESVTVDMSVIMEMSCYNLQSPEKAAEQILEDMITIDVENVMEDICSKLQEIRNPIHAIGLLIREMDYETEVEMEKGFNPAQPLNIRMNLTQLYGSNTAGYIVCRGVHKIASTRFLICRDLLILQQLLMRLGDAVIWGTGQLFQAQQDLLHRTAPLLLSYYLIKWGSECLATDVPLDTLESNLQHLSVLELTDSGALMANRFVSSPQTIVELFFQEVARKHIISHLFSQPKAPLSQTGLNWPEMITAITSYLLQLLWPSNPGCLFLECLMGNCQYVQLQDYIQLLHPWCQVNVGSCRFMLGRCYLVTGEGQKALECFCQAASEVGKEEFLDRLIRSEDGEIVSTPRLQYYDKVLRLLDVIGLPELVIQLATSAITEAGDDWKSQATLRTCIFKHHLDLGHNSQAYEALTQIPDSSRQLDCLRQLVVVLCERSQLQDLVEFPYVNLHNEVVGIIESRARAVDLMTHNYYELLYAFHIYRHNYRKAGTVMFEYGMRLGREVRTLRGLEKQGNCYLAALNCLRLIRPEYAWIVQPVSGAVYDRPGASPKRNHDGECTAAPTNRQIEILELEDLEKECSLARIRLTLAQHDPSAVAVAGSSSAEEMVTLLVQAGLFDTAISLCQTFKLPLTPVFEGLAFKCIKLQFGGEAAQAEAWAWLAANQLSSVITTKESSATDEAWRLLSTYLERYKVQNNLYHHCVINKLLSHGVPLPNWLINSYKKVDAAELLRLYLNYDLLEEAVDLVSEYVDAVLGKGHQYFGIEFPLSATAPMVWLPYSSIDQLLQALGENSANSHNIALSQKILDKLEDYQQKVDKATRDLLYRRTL
UniProt P61956, sequence (P61956 whole entry): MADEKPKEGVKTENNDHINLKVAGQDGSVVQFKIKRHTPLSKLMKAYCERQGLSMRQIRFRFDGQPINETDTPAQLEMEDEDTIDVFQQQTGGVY
UniProt Q15004, sequence (Q15004 whole entry): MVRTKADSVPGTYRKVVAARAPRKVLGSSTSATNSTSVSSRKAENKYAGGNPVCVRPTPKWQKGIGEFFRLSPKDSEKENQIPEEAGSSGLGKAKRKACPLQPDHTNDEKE

Consider ZNF830 (UniProt Q96NB3), for which the thermal stability z-score was 1.38 with lipoamide (setting [1]), 0.482 with lipoamide (arsenate co-treatment: none) and -0.642 with potassium arsenate.
For the target TIMM17A (UniProt Q99595), the thermal stability z-score was 0.133 with lipoamide (setting [1]), -0.417 in the test with lipoamide (arsenate co-treatment: none) and 0.164 with potassium arsenate.
On the same counts, the results for NUP160 (UniProt Q12769) are 0.198, 0.123 and 1.01.
Consider IFI30 (UniProt P13284), for which the figures for the thermal stability z-score in the test with lipoamide (setting [1]), with lipoamide (arsenate co-treatment: none) and in the test with potassium arsenate were 1.71, 0.524 and -0.049, respectively.
On the same counts, the results for USP28 (UniProt Q96RU2) are -0.088, -0.175 and -0.158.
With PHLDA2 (UniProt Q53GA4), the thermal stability z-score with lipoamide (setting [1]) is -0.116; with lipoamide (arsenate co-treatment: none), 0.13; with potassium arsenate, 1.41.
Consider ARSA (UniProt P15289), for which the thermal stability z-score in the test with lipoamide (setting [1]) was 0.254; with lipoamide (arsenate co-treatment: none), 0.195; in the test with potassium arsenate, -0.0376.
On to POGK (UniProt Q9P215), for which the thermal stability z-score in the test with lipoamide (setting [1]) stood at 0.0568; with lipoamide (arsenate co-treatment: none), 0.107; with potassium arsenate, 0.0895.
In the case of HSDL1 (UniProt Q3SXM5), the thermal stability z-score with lipoamide (setting [1]) was -0.0659; in the test with lipoamide (arsenate co-treatment: none), -0.0958; in the test with potassium arsenate, -1.43.
On the same counts, the results for TMEM205 (UniProt Q6UW68) are 1.01, 0.394 and 1.79.
On the same counts, the results for MRPS33 (UniProt Q9Y291) are 0.0616, 0.0342 and 0.00906.
On the same counts, the results for GTF2F2 (UniProt P13984) are 0.00925, -0.239 and -0.198.
With RSL1D1 (UniProt O76021), the thermal stability z-score is 0.414 in the test with lipoamide (setting [1]), -0.108 in the test with lipoamide (arsenate co-treatment: none) and -0.48 in the test with potassium arsenate.
On the same counts, the results for NOP14 (UniProt P78316) are -0.68, -0.438 and -0.581.
On the same counts, the results for KPNA1 (UniProt P52294) are -0.0607, -0.0226 and 0.239.
On the same counts, the results for KIAA0101 (UniProt Q15004) are 0.253, 0.245 and 0.49.
Regarding MTHFD1 (UniProt P11586), the thermal stability z-score with lipoamide (setting [1]) was 0.565; in the test with lipoamide (arsenate co-treatment: none) it was 0.406; with potassium arsenate, -0.927.
On the same counts, the results for DROSHA (UniProt Q9NRR4) are -0.124, -0.127 and 0.141.
Regarding AKT2 (UniProt P31751), the thermal stability z-score with lipoamide (setting [1]) is 0.466; in the test with lipoamide (arsenate co-treatment: none), -0.00865; with potassium arsenate, -0.0952.
As to SOCS6 (UniProt O14544), the figures for the thermal stability z-score with lipoamide (setting [1]), with lipoamide (arsenate co-treatment: none) and with potassium arsenate were 0.0176, 0.0429 and 0.053, respectively.
On the same counts, the results for SUMO2 (UniProt P61956) are 1.1, 1.59 and 0.306.
On the same counts, the results for OXA1L (UniProt Q15070) are -0.709, -0.369 and -0.251.
Take TMA7 (UniProt Q9Y2S6): the thermal stability z-score stood at 0.356 in the test with lipoamide (setting [1]), 0.314 with lipoamide (arsenate co-treatment: none) and 0.111 with potassium arsenate.
For the target PNP (UniProt P00491), the thermal stability z-score was 0.446 in the test with lipoamide (setting [1]), 0.411 with lipoamide (arsenate co-treatment: none) and 0.178 in the test with potassium arsenate.
On the same counts, the results for MRPL48 (UniProt Q96GC5) are -0.0867, 0.198 and 0.101.
Take MRPL16 (UniProt Q9NX20): the thermal stability z-score with lipoamide (setting [1]) is -0.269; in the test with lipoamide (arsenate co-treatment: none), -0.373; in the test with potassium arsenate it was -0.974.
Take MCU (UniProt Q8NE86): the figures for the thermal stability z-score in the test with lipoamide (setting [1]), with lipoamide (arsenate co-treatment: none) and in the test with potassium arsenate were -0.0937, 0.21 and 0.57, respectively.
Regarding GTPBP6 (UniProt O43824), the thermal stability z-score with lipoamide (setting [1]) is 0.0509; in the test with lipoamide (arsenate co-treatment: none), -0.133; in the test with potassium arsenate it was 0.043.
On the same counts, the results for NFS1 (UniProt Q9Y697) are -0.356, -0.438 and -1.15.
On the same counts, the results for RPS6KB2 (UniProt Q9UBS0) are 0.0955, 0.0989 and -0.0668.
On the same counts, the results for HINT3 (UniProt Q9NQE9) are 0.23, 0.339 and -1.57.
As to GCHFR (UniProt P30047), the thermal stability z-score was -0.485 with lipoamide (setting [1]), -0.374 in the test with lipoamide (arsenate co-treatment: none) and 0.0269 with potassium arsenate.
The like results for COA3 (UniProt Q9Y2R0) were, in that order, 0.463, 0.725 and 0.126.
On the same counts, the results for TRAM1 (UniProt Q15629) are -0.499, -1.11 and 0.968.
On the same counts, the results for HTATSF1 (UniProt O43719) are 0.386, 0.479 and -0.763.
On to METTL13 (UniProt Q8N6R0), for which the results for the thermal stability z-score with lipoamide (setting [1]), in the test with lipoamide (arsenate co-treatment: none) and with potassium arsenate were -0.507, -0.621 and 0.0691, respectively.
In the case of DEGS1 (UniProt O15121), the thermal stability z-score in the test with lipoamide (setting [1]) was -0.756; with lipoamide (arsenate co-treatment: none), -1.25; in the test with potassium arsenate, 0.212.
In the case of CUTC (UniProt Q9NTM9), the thermal stability z-score is 0.342 with lipoamide (setting [1]), 0.211 with lipoamide (arsenate co-treatment: none) and -0.934 with potassium arsenate.
As for NAA40 (UniProt Q86UY6), the figures for the thermal stability z-score with lipoamide (setting [1]), in the test with lipoamide (arsenate co-treatment: none) and with potassium arsenate were -0.126, 0.2 and 0.0387, respectively.
As for TTLL12 (UniProt Q14166), the thermal stability z-score with lipoamide (setting [1]) was 1.14; with lipoamide (arsenate co-treatment: none) it was 0.696; with potassium arsenate, -0.427.
On the same counts, the results for GAR1 (UniProt Q9NY12) are -0.515, -0.354 and -0.376.
On the same counts, the results for FKBP14 (UniProt Q9NWM8) are -3.79, -2.85 and -0.591.

Source of the values: the supplement of paper PMC12463676, “Small-molecule dissolution of stress granules by redox modulation benefits ALS models” (Nature Chemical Biology, 2025).
